Experimental data published in US8455497B2, “Inhibitors of aspartyl protease” (Vertex Pharmaceuticals Incorporated, priority 1999, dated 2013).
Where two headings read alike, the source gives them in different places.

Tests used:
HIV-1 (strain IIIB) = assay: Antiviral activity assay in MT4 cells (propidium iodide based); type: cell-based; settings: wild type HIV-1 virus, MT4 cells, read-out: Wildtype virus - IC50
Procedure: Antiviral Activity Assay in MT4 Cells
(§1) Aliquots of the test compounds were serially diluted in medium (RPMI 1640, 10% fetal calf serum (FCS), and gentamycin) in 96-well plates (Costar 3598) using a Cetus Pro/Pette. Exponentially growing MT4 cells were harvested and centrifuged at 1000 rpm for 10 min in a Jouan centrifuge (model CR 4 12). Cell pellets were resuspended in fresh medium (RPMI 1640, 20% FCS, 20% IL-2, and gentamycin) to a density of 5×10^5 cells/ml. Cell aliquots were infected by the addition of HIV-1 (strain IIIB) diluted to give a viral multiplicity of infection of 100×TCID50. A similar cell aliquot was diluted with medium to provide a mock-infected control. Cell infection was allowed to proceed for 1 hr at 37° in a tissue culture incubator with humidified 5% CO2 atmosphere. After the 1 hr incubation the virus/cell suspensions were diluted 6-fold with fresh medium, and 125 μl of the cell suspension was added to each well of the plate containing pre-diluted compound. Plates were then placed in a tissue culture incubator with humidified 5% CO2 for 5 days. At the end of the incubation period, 27 μl of 5% Nonidet-40 was added to each well of the incubation plate. After thorough mixing with a Costar multitip pipetter, 60 μl of the mixture was transferred to filter-bottomed 96-well plates. The plates were analyzed in an automated assay instrument (Screen Machine, Idexx Laboratories). The assay makes use of a propidium iodide dye to estimate the DNA content of each well.
The anti-viral potency in MT-4 cells of the compounds set forth in Tables 1 and 2 was determined using the above technique.

[1] = system: D545701-14 multi protease inhibitor resistant virus; assay: Anti-viral activity against resistant virus D545701-14 in MT4 cells; type: cell-based, HIV-1
Procedure: as §1, with “Exponentially” for “Aliquots of the test compounds were serially diluted in medium (RPMI 1640, 10% fetal calf serum (FCS), and gentamycin) in 96-well plates (Costar 3598) using a Cetus Pro/Pette. Exponentially”, “Cell pellets were resuspended in fresh medium (RPMI 1640, 20% FCS, 20% IL-2, and gentamycin) to a density of 5×10^5 cells/ml.” left out, “A similar cell aliquot was diluted with medium to provide a mock-infected control.” left out
(§2) Anti-Viral Activity Against Resistant Viruses
EP13 and DS45701, two multi protease inhibitor resistant viruses were used to assess potency against mutant viruses. These viruses contain the following mutations relative to the consensus sequence of wild type virus: […]

[2] = system: EP13 multi protease inhibitor resistant virus; assay: Anti-viral activity against resistant virus EP13 in MT4 cells; type: cell-based, HIV-1
Procedure: as §1, with “Exponentially” for “Aliquots of the test compounds were serially diluted in medium (RPMI 1640, 10% fetal calf serum (FCS), and gentamycin) in 96-well plates (Costar 3598) using a Cetus Pro/Pette. Exponentially”, “Cell pellets were resuspended in fresh medium (RPMI 1640, 20% FCS, 20% IL-2, and gentamycin) to a density of 5×10^5 cells/ml.” left out, “A similar cell aliquot was diluted with medium to provide a mock-infected control.” left out
as §2
EP13 and DS45701, two multi protease inhibitor resistant viruses were used to assess potency against mutant viruses. These viruses contain the following mutations relative to the consensus sequence of wild type virus:
EP13: Protease amino acid sequence: M46I, L63P, A71V, V82F/L, I84V; No reverse transcriptase mutations.

[3] = D545701-14 multi protease inhibitor resistant virus, MT4 cells, read-out: D545701-14 mutant - IC50
[4] = Human immunodeficiency virus 1, IIIB

| IC50 (HIV-1 (strain IIIB); [4]) [nM] | Structure (SMILES) | IC50 (HIV-1 (strain IIIB)) [nM] | IC50 [1, 3] [nM] | also measured |
| --- | --- | --- | --- | --- |
| – | CC(C)CN(C[C@@H](O)[C@H](Cc1ccc(OCc2ccoc2)cc1)NC(=O)O[C@H]1CO[C@H]2OCC[C@H]21)S(=O)(=O)c1ccc2c(c1)OCO2 [Compound 210] | 1 to 10 | 10 to 100 | – |
| – | CC(C)CN(C[C@@H](O)[C@H](Cc1ccc(OCCc2ccccn2)cc1)NC(=O)O[C@H]1CO[C@H]2OCC[C@H]21)S(=O)(=O)c1ccc2c(c1)OCO2 [Compound 212] | 1 to 10 | 10 to 100 | – |
| – | CC(C)CN(C[C@@H](O)[C@H](Cc1ccc(OCCCNC(=O)c2ccccc2)cc1)NC(=O)O[C@H]1CO[C@H]2OCC[C@H]21)S(=O)(=O)c1ccc2c(c1)OCO2 [Compound 233] | 1 to 10 | 10 to 100 | – |
| 10 to 100 | CC(C)CN(C[C@@H](O)[C@H](Cc1ccc(OCCCC(=O)O)cc1)NC(=O)O[C@H]1CO[C@H]2OCC[C@H]21)S(=O)(=O)c1ccc2c(c1)OCO2 [Compound 339, 4-(4-{(2S,3R)-2-({[(3R,3aS,6aR)-hexahydrofuro[2,3-b]furan-3-yloxy]carbonyl}amino)-4-[(1,3-benzodioxol-5-ylsulfonyl)(isobutyl)amino]-3-hydroxybutyl}phenoxy) butanoic acid] | – | – | – |
| 10 to 100 | CC(C)CN(C[C@@H](O)[C@H](Cc1ccc(OCc2ccccc2)cc1)NC(=O)O[C@H]1CO[C@H]2OCC[C@H]21)S(=O)(=O)c1ccc2c(c1)OC(F)(F)O2 [Compound 340, (3R,3aS,6aR)-hexahydrofuro[2,3-b]furan-3-yl (1S,2R)-1-[4-(benzyloxy)benzyl]-3-[[(2,2-difluoro-1,3-benzodioxol-5-yl)sulfonyl](isobutyl)amino]-2-hydroxypropylcarbamate] | – | – | – |
| 10 to 100 | Cc1cc(S(=O)(=O)N(CC(C)C)C[C@@H](O)[C@H](Cc2ccc(OCc3cccc(C#N)c3)cc2)NC(=O)O[C@H]2CO[C@H]3OCC[C@H]32)ccc1O [Compound 346] | – | – | – |
| 10 to 100 | Cc1cccc(C)c1OCC(=O)N[C@@H](Cc1ccc(OS(=O)(=O)c2ccc3c(c2)OCO3)cc1)[C@H](O)CN(CC(C)C)S(=O)(=O)c1ccc2c(c1)OCO2 [Compound 350, 4-((2S,3R)-4-[(1,3-benzodioxol-5-ylsulfonyl)(isobutyl)amino]-2-{[(2,6-dimethylphenoxy)acetyl]amino}-3-hydroxybutyl)phenyl 1,3-benzodioxole-5-sulfonate] | – | – | – |
| 10 to 100 | CC(C)CN(C[C@@H](O)[C@H](Cc1ccc(OCCN)cc1)NC(=O)O[C@H]1CO[C@H]2OCC[C@H]21)S(=O)(=O)c1ccc2c(c1)OCO2 [Compound 354, (3R,3aS,6aR)hexahydrofuro[2,3-b]furan-3-yl (1S,2R)-3-[(1,3-benzodioxol-5-ylsulfonyl)(isobutyl)amino]-2-hydroxy-1-[4-(2-aminoethoxy)benzyl]propylcarbamate] | – | – | – |
| 10 to 100 | CNC(=O)OCCCC(C)(C)CN(C[C@@H](O)[C@H](Cc1ccc(OCc2ccccc2)cc1)NC(=O)OC1CCOC1)S(=O)(=O)c1ccc2c(c1)OCO2 (some centres unmarked) [Compound 362] | – | – | – |
| 10 to 100 | CNC(=O)OCCCC(C)(C)CN(C[C@@H](O)[C@H](Cc1ccc(OCc2ccccc2)cc1)NC(=O)OC1COCOC1)S(=O)(=O)c1ccc2c(c1)OCO2 [Compound 363, 1,3-Dioxan-5-yl N-((1S,2R)-1-[(4-benzyloxy)benzyl-3-[2,2-dimethyl-5-(N′-methylcarbamoyloxy)-pentyl][(3,4-methylenedioxyphenyl)sulfonyl]amino-2-hydroxypropyl) carbamate] | – | – | – |
| 1 to 10 | CSc1ccc(COc2ccc(C[C@H](NC(=O)O[C@H]3CO[C@H]4OCC[C@H]43)[C@H](O)CN(CC(C)C)S(=O)(=O)c3ccc4c(c3)OCO4)cc2)cc1 [Compound 369] | – | – | – |
| – | CC(C)CN(C[C@@H](O)[C@H](Cc1ccc(OCc2ccc(F)cc2)cc1)NC(=O)O[C@H]1CO[C@H]2OCC[C@H]21)S(=O)(=O)c1ccc2c(c1)OCO2 [Compound 371] | 10 to 100 | – | IC50 ([2]; EP13 multi protease inhibitor resistant virus, MT4 cells, read-out: EP13 mutant IC50): 1 to 10 nM |
| – | CC(C)CN(C[C@@H](O)[C@H](Cc1ccc(OCc2ccc(C(F)(F)F)cc2)cc1)NC(=O)O[C@H]1CO[C@H]2OCC[C@H]21)S(=O)(=O)c1ccc2c(c1)OCO2 [Compound 372] | 1 to 10 | 10 to 100 | – |
| – | CC(C)CN(C[C@@H](O)[C@H](Cc1ccc(OCc2cccc(C(F)(F)F)c2)cc1)NC(=O)O[C@H]1CO[C@H]2OCC[C@H]21)S(=O)(=O)c1ccc2c(c1)OCO2 [Compound 373] | 1 to 10 | 10 to 100 | – |
| – | CC(C)CN(C[C@@H](O)[C@H](Cc1ccc(OCc2ccc(-c3csnn3)cc2)cc1)NC(=O)O[C@H]1CO[C@H]2OCC[C@H]21)S(=O)(=O)c1ccc2c(c1)OCO2 [Compound 374] | 1 to 10 | – | – |
| – | CC(C)CN(C[C@@H](O)[C@H](Cc1ccc(OCc2noc(-c3ccccc3)n2)cc1)NC(=O)O[C@H]1CO[C@H]2OCC[C@H]21)S(=O)(=O)c1ccc2c(c1)OCO2 [Compound 375] | 1 to 10 | 10 to 100 | – |
| – | CC(C)CN(C[C@@H](O)[C@H](Cc1ccc(OCc2ccc([N+](=O)[O-])cc2)cc1)NC(=O)O[C@H]1CO[C@H]2OCC[C@H]21)S(=O)(=O)c1ccc2c(c1)OCO2 [Compound 383, (3R,3aS,6aR)-hexahydrofuro[2,3-b]furan-3-yl (1S,2R)-3-[(1,3-benzodioxol-5-ylsulfonyl)(isobutyl)amino]-2-hydroxy 1-{4-[(4-nitrobenzyl)oxy]benzyl}propylcarbamate] | 1 to 10 | – | – |
| – | COc1ccccc1-c1nc(COc2ccc(C[C@H](NC(=O)O[C@H]3CO[C@H]4OCC[C@H]43)[C@H](O)CN(CC(C)C)S(=O)(=O)c3ccc4c(c3)OCO4)cc2)no1 [Compound 390, (3R,3aS,6aR)-hexahydrofuro[2,3-b]furan-3-yl (1S,2R)-3-[(1,3-benzodioxol-5-ylsulfonyl)(isobutyl)amino]-2-hydroxy-1-(4-{[5-(2-methoxyphenyl)-1,2,4-oxadiazol-3-yl]methoxy}benzyl) propylcarbamate] | 1 to 10 | 10 to 100 | – |
| – | CC(C)CN(C[C@@H](O)[C@H](Cc1ccc(OCc2nccn2Cc2ccccc2)cc1)NC(=O)O[C@H]1CO[C@H]2OCC[C@H]21)S(=O)(=O)c1ccc2c(c1)OCO2 [Compound 394] | 1 to 10 | – | – |
| – | N#Cc1cccc(COc2ccc(C[C@H](NC(=O)O[C@H]3CO[C@H]4OCC[C@H]43)[C@H](O)CN(CC3CCCC3)S(=O)(=O)c3ccc4c(c3)OCO4)cc2)c1 [Compound 396, (3R,3aS,6aR)-hexahydrofuro[2,3-b]furan-3-yl (1S,2R)-3-[(1,3-benzodioxol-5-ylsulfonyl)(cyclopentylmethyl)amino-]-1-{4-[(3-cyanobenzyl)oxy]benzyl}-2-hydroxypropylcarbamate] | 1 to 10 | – | – |
| – | Cc1c(O)cccc1C(=O)N[C@@H](CSc1ccccc1)[C@H](O)CN1C[C@H]2CCCC[C@H]2C[C@H]1C(=O)NC(C)(C)C [Nelfinavir, reference compound] | – | – | IC50 ([1]; Human immunodeficiency virus 1, MT4, read-out: Reference data for protease inhibitors (D545701-14), D545701-14 mutant virus): 690 nM |
| – | CC(C)(C)NC(=O)[C@@H]1C[C@@H]2CCCC[C@@H]2CN1C[C@@H](O)[C@H](Cc1ccccc1)NC(=O)[C@H](CC(N)=O)NC(=O)c1ccc2ccccc2n1 [Saguinavir, reference compound] | – | – | IC50 ([1]; D545701-14 mutant virus, read-out: Reference data for protease inhibitors (D545701-14)): 900 nM |

| Structure (SMILES) | IC50 (HIV-1 (strain IIIB); [4]) [nM] | IC50 (HIV-1 (strain IIIB)) [nM] | IC50 [1, 3] [nM] | also measured |
| --- | --- | --- | --- | --- |
| CC(C)CN(C[C@@H](O)[C@H](Cc1ccc(OS(=O)(=O)c2ccc([N+](=O)[O-])cc2)cc1)NC(=O)O[C@@H]1CO[C@H]2OCC[C@H]21)S(=O)(=O)c1ccc([N+](=O)[O-])cc1 [Compound 297, 4-((2S,3R)-2-({[(3S,3aS,6aR)-hexahydrofuro[2,3-b]furan-3-yloxy]carbonyl}amino)-3-hydroxy-4-{isobutyl[(4-nitrophenyl)sulfonyl]amino}butyl)phenyl 4-nitrobenzenesulfonate] | 10 to 100 | – | – | IC50 ([2]; Human immunodeficiency virus 1, MT4, read-out: EP13 mutant IC50, EP13 multi protease inhibitor resistant virus, MT4 cells): 10 to 100 nM |
